Measured values: ChEMBL document CHEMBL5257038, “Active Natural Product Scaffolds against Trypanosomatid Parasites: A Review” (J Nat Prod, 2018)

Experiments:
Trypanosoma cruzi = assay: Antitrypanosomal activity against epimastigote form of Trypanosoma cruzi assessed as reduction in parasite growth; format: functional, organism-based
Leishmania major = assay: Antileishmanial activity against Leishmania major promastigotes assessed as parasite growth inhibition; format: functional, organism-based
[1] = system: Trypanosoma brucei brucei; assay: Antitrypanosomal activity against Trypanosoma brucei brucei; format: functional, organism-based
[2] = Selectivity index, ratio of EC50 for cytotoxicity against African green monkey Vero cells to EC50 for antitrypanosomal activity against Trypanosoma brucei brucei; format: toxicity, cell-based; conditions: read-out: Ratio EC50
[3] = Selectivity index, ratio of EC50 for cytotoxicity against African green monkey Vero cells to EC50 for antitrypanosomal activity against epimastigote form of Trypanosoma cruzi; format: toxicity, cell-based; conditions: read-out: Ratio EC50
[4] = Selectivity index, ratio of EC50 for cytotoxicity against African green monkey Vero cells to EC50 for antileishmanial activity against Leishmania major promastigotes; format: toxicity, cell-based; conditions: read-out: Ratio EC50

EC50 (Trypanosoma cruzi): 12.7 µM | EC50 [1]: 5.1 µM
SMILES: CCOC1C[C@H](CCCCOCc2ccccc2)O[C@H](Cn2cc([C@@H]3CCC[C@H](CCCCOCc4ccccc4)O3)nn2)C1 (stereo partly specified)
EC50 (Leishmania major): 15.3 µM | selectivity ratio [2]: 100 | selectivity ratio [3]: 39 | selectivity ratio [4]: 33
